From patent US9328138B2 (priority 2011, dated 2016) come the findings set out here.

Assay [1] deals with T1, HCV genotype 1b (BK) NS3 modified enzyme with a R155K mutation (Hepatitis C virus genotype 1b, UniProt P26663, R1181K).
T1 construct: HCV genotype 1b (BK) NS3 modified enzyme
Put plainly: HCV NS3 protease time-resolved fluorescence (TRF) assay, genotype 1b R155K. The assay is classed as biochemical. The following applies: Ki 1b R155K. Here is the method: (§1) The HCV NS3 protease inhibitory activity of the present compounds may be tested using assays known in the art. One such assay is HCV NS3 protease time-resolved fluorescence (TRF) assay as described below and in International Patent Application Publication No. WO2006/102087. Other examples of such assays are described in e.g., International Patent Application Publication No. WO2005/046712. The assay is performed in a final volume of 100 μl in assay buffer containing 50 mM HEPES, pH 7.5, 150 mM NaCl, 15% glycerol, 0.15% Triton X-100, 10 mM DTT, and 0.1% PEG 8000. NS3 protease is pre-incubated with various concentrations of inhibitors in DMSO for 30 minutes. The reaction is initiated by adding the TRF peptide substrate (final concentration 100 nM). NS3 mediated hydrolysis of the substrate is quenched after 1 hour at room temperature with 100 μl of 500 mM MES, pH 5.5. Product fluorescence is detected using either a VICTOR V2 or FUSION fluorophotometer (Perkin Elmer Life and Analytical Sciences) with excitation at 340 nm and emission at 615 nm with a 400 μs delay. Testing concentrations of different enzyme forms are selected to result in a signal to background ratio (S/B) of 10-30. IC50 values are derived using a standard four-parameter fit to the data. K; values are derived from IC50 values using the following formula, IC50=Ki(1+[S]/Km), Eqn (1), where [S] is the concentration of substrate peptide in the reaction and KM is the Michaelis constant. See Gallinari et al., 1999, Biochem. 38:5620-32; Gallinari et al., 1998, J. Virol. 72:6758-69; Taliani et al., 1996, Anal. Biochem. 240:60-67.
(§2) The HCV NS3 protease inhibitory activity was measured using the protease time-resolved fluorescence (TRF) assay as described below and in International Patent Application Publication No. WO 2006/102087. The assay was performed with HCV genotype 1b (BK) NS3 modified enzyme with a R155K mutation and genotype 3a (3A-1).
(§3) The assay was performed in a final volume of 50 μl in assay buffer containing 50 mM HEPES, pH 7.5, 150 mM NaCl, 15% glycerol, 0.15% TRITON X-100, 10 mM DTT, and 0.1% PEG 8000. NS3 and NS4A protease is pre-incubated with various concentrations of inhibitors in DMSO for 10 minutes. The reaction was initiated by adding the TRF peptide substrate (final concentration 25 nM) and NS3 mediated hydrolysis of the substrate proceeds for 6 hours at room temperature. Product fluorescence is detected using an Envision plate reader (Perkin Elmer) with excitation at 340 nm and emission at 615 nm with a 400 μs delay. Testing concentrations of the enzymes were selected to result in a signal to background ratio (S/B) of 5-20. IC50 values are derived using a standard four-parameter fit to the data.
(§4) NS3 and NS4A protease is pre-incubated with various concentrations of inhibitors in DMSO for 30 minutes. The reaction is initiated by adding the TRF peptide substrate (final concentration 100 nM). NS3 mediated hydrolysis of the substrate is quenched after 1 hour at room temperature with 100 μl of 500 mM MES, pH 5.5. Product fluorescence is detected using either a VICTOR V2 or FUSION fluorophotometer (Perkin Elmer Life and Analytical Sciences) with excitation at 340 nm and emission at 615 nm with a 400 μs delay. Testing concentrations of the enzymes are selected to result in a signal to background ratio (S/B) of 8-30. IC50 values are derived using a standard four-parameter fit to the data. Ki values are derived from IC50 values using the following formula, IC50=Ki(1+[S][…]), Eqn (1), where [S] is the concentration of substrate peptide in the reaction and KM is the Michaelis constant. See Gallinari et al., 1999, Biochem. 38:5620-32; Gallinari et al., 1998, J. Virol. 72:6758-69; and Taliani et al., 1996, Anal. Biochem. 240:60-67. ND means not determined.

Assay [2] addresses HCV NS3 protease genotype 3a (3A-1) (Hepatitis C virus genotype 3a, UniProt Q81258). Nature of the assay: HCV NS3 protease time-resolved fluorescence (TRF) assay, genotype 3a. Format: biochemical. The conditions noted are these: Ki 3a. Here is the method:
as §1, §2, §3, §4

Setting [3] is: first of two values printed in the cell (not explained).
The mark [4] stands for this setting: second of two values printed in the cell (not explained).
Setting [5] is: genotype 1b (BK) NS3 R155K, single value.

A word on the Ki: it is the equilibrium dissociation constant of an inhibitor or competing ligand from its target. Read a low Ki as a stronger hold on the target.

Consider `C=C[C@@H]1CC1(NC(=O)[C@@H]1C[C@@H]2CN1C(=O)[C@H](C1CCCCC1)NC(=O)O[C@@H]1C[C@H]1CCCCCc1c(nc3ccccc3c1OC1CCNCC1F)O2)C(=O)NS(=O)(=O)C1(C)CC1` (stereo in doubt) [Example 293, (3S,4R)-4-{[(1aR,5S,8S,10R,22aR)-5-cyclohexyl-8-{[(1R,2S)-2-ethenyl-1-{[(1-methylcyclopropyl)sulfonyl]carbamoyl}cyclopropyl]carbamoyl}-3,6-dioxo-1,1a,3,4,5,6,9,10,18,19,20,21,22,22a-tetradecahydro-8H-7,10-methanocyclopropa[18,19][1,10,3,6]dioxadiazacyclononadecino[11,12-b]quinolin-17-yl]oxy}-3-fluoropiperidinium chloride], for which the results for the Ki in assay [1] (setting [3]), in assay [1] (setting [4]) and in assay [2] were 0.029 nM, 0.138 nM and 1.3 nM, respectively.

With `C=C[C@@H]1C[C@]1(NC(=O)[C@@H]1C[C@@H]2CN1C(=O)[C@H](C(C)(C)C)NC(=O)O[C@@H]1CCC[C@H]1CCCCCc1c(nc3ccccc3c1OCCCN1CCOCC1)O2)C(=O)NS(=O)(=O)C1(COC)CC1` [Example 64, (3aR,7S,10S,12R, 24aR)-7-tert-butyl-N-[(1R,2S)-2-ethenyl-1-({[1-(methoxymethyl)cyclopropyl]sulfonyl}carbamoyl)cyclopropyl]-19-[3-(morpholin-4-yl)propoxy]-5,8-dioxo-1,2,3,3a,5,6,7,8, 11,12,20,21,22,23,24, 24a-hexadecahydro-10H-9,12-methanycyclopenta [18,19][1,10,3,6] dioxadiazacyclo-nonadecino [11,12-b]quinoline-10-carboxamide], the Ki in assay [1] (setting [5]) amounted to 0.43 nM; in assay [2], 5.5 nM.

On to `C=C[C@@H]1C[C@]1(NC(=O)[C@@H]1C[C@@H]2CN1C(=O)[C@H](C(C)(C)C)NC(=O)O[C@@H]1C[C@H]1CCCCCc1c(nc3ccccc3c1OC1CNC1)O2)C(=O)NS(=O)(=O)C1(C)CC1` [Example 222, (1aR,5S,8S,10R,22aR)-17-(azetidin-3-yloxy)-5-tert-butyl-N-[(1R,2S)-2-ethenyl-1-{[(1-methylcyclopropyl)sulfonyl]carbamoyl}cyclopropyl]-3,6-dioxo-1,1a,3,4,5,6,9,10,18,19,20,21,22,22a-tetradecahydro-8H-7,10-methanocyclopropa[18,19][1,10,3,6]dioxadiazacyclononadecino[11,12-b]quinoline-8-carboxamide], for which the results for the Ki in assay [1] (setting [5]) and in assay [2] were 0.045 nM and 0.44 nM, respectively.

With `C=C[C@@H]1C[C@]1(NC(=O)[C@@H]1C[C@@H]2CN1C(=O)[C@H](C(C)(C)C)NC(=O)O[C@@H]1C[C@H]1CCCCCc1c(nc3ccccc3c1OC1CN(CC3CC3)C1)O2)C(=O)NS(=O)(=O)C1(C)CC1` [Example 223, (1aR,5S,8S,10R,22aR)-5-tert-butyl-17-{[1-(cyclopropylmethyl)azetidin-3-yl]oxy}-N-[(1R,2S)-2-ethenyl-1-{[(1-methylcyclopropyl)sulfonyl]carbamoyl}cyclopropyl]-3,6-dioxo-1,1a,3,4,5,6,9,10,18,19,20,21,22,22a-tetradecahydro-8H-7,10-methanocyclopropa[18,19][1,10,3,6]dioxadiazacyclononadecino[11,12-b]quinoline-8-carboxamide], the values for the Ki in assay [1] (setting [5]) and in assay [2] were 0.055 nM and 1.2 nM, respectively.

With `C=C[C@@H]1C[C@]1(NC(=O)[C@@H]1C[C@@H]2CN1C(=O)[C@H](C1(C)CCCCC1)NC(=O)O[C@@H]1C[C@H]1CCCCCc1c(nc3ccccc3c1OC1CC3CCC(C1)N3C)O2)C(=O)NS(=O)(=O)C1(C)CC1` (stereo partly drawn) [Example 263, (1aR,5S,8S,10R,22aR)—N-[(1R,2S)-2-ethenyl-1-{[(1-methylcyclopropyl)sulfonyl]carbamoyl}cyclopropyl]-17-[(8-methyl-8-azabicyclo[3.2.1]oct-3-yl)oxy]-5-(1-methylcyclohexyl)-3,6-dioxo-1,1a,3,4,5,6,9,10,18,19,20,21,22,22a-tetradecahydro-8H-7,10-methanocyclopropa[18,19][1,10,3,6]dioxadiazacyclononadecino[11,12-b]quinoline-8-carboxamide], the Ki was 0.006 nM in assay [1] (setting [3]), 0.011 nM in assay [1] (setting [4]) and 0.041 nM in assay [2].

On to `CC1(S(=O)(=O)NC(=O)[C@@]23C[C@H]2/C=C\CCCCC[C@@H]2NC(=O)O[C@@H]4C[C@H]4CCCCCc4c(nc5ccccc5c4OCCN4CCCC4)O[C@@H]4C[C@@H](C(=O)N3)N(C4)C2=O)CC1` [Example 306, (1aR,5S,11Z,12aS,13aR,16S,19R,31aR)—N-[(1-methylcyclopropyl)sulfonyl]-3,15,33-trioxo-26-[2-(pyrrolidin-1-yl)ethoxy]-1,1a,3,4,5,6,7,8,9,10,12a,13,15,16,18,19,27,28,29,30,31,31a-docosahydro-5,17:16,19-dimethanodicyclopropa[12,13:28,29][1,20,3,14,17]dioxatriazacyclononacosino[21,22-b]quinoline-13a(14H)-carboxamide], for which the Ki is 0.083 nM in assay [1] (setting [5]) and 0.72 nM in assay [2].

With `C=C[C@@H]1C[C@]1(NC(=O)[C@@H]1C[C@@H]2CN1C(=O)[C@H](C1(C)CCCCC1)NC(=O)O[C@@H]1C[C@H]1CCCCCc1c(nc3ccccc3c1OC1CCN(C(=O)OC(C)(C)C)CC1)O2)C(=O)NS(=O)(=O)C1(C)CC1` [Example 267, tert-butyl 4-{[(1aR,5S,8S,10R,22aR)-8-{[(1R,2S)-2-ethenyl-1-{[(1-methylcyclopropyl)sulfonyl]carbamoyl}cyclopropyl]carbamoyl}-5-(1-methylcyclohexyl)-3,6-dioxo-1,1a,3,4,5,6,9,10,18,19,20,21,22,22a-tetradecahydro-8H-7,10-methanocyclopropa[18,19][1,10,3,6]dioxadiazacyclononadecino[11,12-b]quinolin-17-yl]oxy}piperidine-1-carboxylate], the Ki stood at 0.114 nM in assay [1] (setting [3]), 4.6 nM in assay [1] (setting [4]) and 56 nM in assay [2].

For the compound `C=C[C@@H]1C[C@]1(NC(=O)[C@@H]1C[C@@H]2CN1C(=O)[C@H](C1CCCC1)NC(=O)O[C@@H]1CCC[C@H]1CC/C=C/Cc1c(nc3ccccc3c1OC(=O)C(C)C)O2)C(=O)NS(=O)(=O)C1CC1` [Example 40, (3aR,7S,10S,12R,21E,24aS)-7-cyclopentyl-10-({(1R,2S)-1-[(cyclopropylsulfonyl)carbamoyl]-2-ethenylcyclopropyl}carbamoyl)-5,8-dioxo-1,2,3,3a,5,6,7,8,11,12,20,23,24,24a-tetradecahydro-10H-9,12-methanocyclopenta[18,19][1,10,3,6]dioxadiazacyclononadecino[11,12-b]quinolin-19-yl 2-methylpropanoate], the results for the Ki in assay [1] (setting [5]) and in assay [2] were 1.3 nM and 27 nM, respectively.
